Results published in patent US6231885A, “Composition for controlled and sustained transdermal administration” (Permatec Technologie AG, priority 1997, dated 2001).
Entries after “also recorded” stand apart in the source; their conditions may differ.

Experiment: In vitro enhancer release, paddle over disk method (apparatus 5, USP 23)
Format: physicochemical
Settings: in words, in vitro and in vivo results
Protocol: The release of lauric acid and oleic acid was analyzed using paddle over disk method (apparatus 5, USP 23, Drug Release 724).
FIG. 1 schematically shown the apparatus mentioned before. In these experiments we have determined the release profiles of lauric acid and oleic acid from transdermal patches, measuring the remaining drug (by means of HPLC techniques) in samples taken at different time points.
The examples used were: Example 1; Example 2 and Example 3.
The dissolution conditions used were: paddle speed: 50 rpm; temperature: 32° C.; dissolution medium: aqueous solution of sodium dodecyl sulphate 0.3%; volume: 500 ml; sample program: 0.5; 1.0; 2.0; 4.0; 8.0 and 24 h.

SMILES	Release from the adhesive matrix	Release from the adhesive matrix (listed as lauric acid)
CCCCCCCC/C=C\CCCCCCCC(=O)O [oleic acid]	slow release; also recorded: delivered in small amount and is prone to remain in the adhesive monolithic matrix	
CCCCCCCCCCCC(=O)O [Lauric acid]	rapid release	a great proportion of the amount of lauric acid is delivered at early times
